US4024224A, “14-Aminodaunomycins, their preparation and use” (priority 1974, dated 1977)
≈ marks a conversion by molar mass, not a printed value. Like-named read-outs stand apart in the source and are kept apart here.

Experiments:
[1] = Proliferation of uninfected mouse embryo fibroblasts (MEF); type: cell-based; conditions: mouse, mouse embryo fibroblasts; calculated on dose-effects lines; uninfected MEF, 3 days treatment; read-out: MEF proliferation ID 50 (Inhibiting Dose 50%)
Method: (§1) Mouse embryo fibroblasts (MEF) were plated on 35 mm. Falcon plastic dishes and infected 24 hours later with Moloney Sarcoma Virus (MSV) in the presence of DEAE-dextran (25 μg./ml.). The samples were then treated for 3 days with different concentrations of the compounds of the invention. The number of foci of transformed cells was microscopically determined 5 days after the infection. Uninfected MEF were similarly treated and at the end of the experiment, the cells were counted in an haemocytometer. In all the experiments, the cells were incubated in a 5% CO2 incubator at 37° C.
(§2) For use in these tests the compounds were dissolved in distilled water or in 5% ethyl alcohol in distilled water and then diluted in culture medium.

Mouse Embryo Fibroblasts = test: as above; type: cell-based; conditions: Mus musculus, Fibroblast, 72 h, uninfected MEF, 3 days treatment, read-out: MEF No. of cells
Method: as §1, §2

Solid Sarcoma 180 = test: Antitumor activity and toxicity on solid Sarcoma 180 in CD 1 mice; type: in vivo; conditions: for Tumor Volume T/C %: 11th day; for Toxic Deaths: deaths/total
Method: (§3) The toxicity of the test compounds was evaluated by macroscopic autoptic examination mainly in terms of reduction in spleen size. The comparison of the effectiveness of the test compounds is based on the maximum increase in median survival time, as compared to untreated controls, over the dose range used. The number of Long Term Survivors (LTS) refers to tumor-free mice at the end of the experiment (60 days). Solid Sarcoma 180 was implanted subcutaneously by trocar in the flank of CD 1 mice according to standard methods. The mice were treated i.v. for 5 consecutive days, starting 1 day after the tumor implant. On the 11th day the tumor volume was measured by means of a caliper and evaluated according to the formula (a^2 × b)/2, a and b being the minimum and the maximum diameters respectively.

[2] = tested on: Moloney Sarcoma Virus (MSV); test: Inhibition of MSV-M foci formation in mouse embryo fibroblasts; type: cell-based; conditions: Fibroblast, 120 h, 3 days treatment
Method: as §1, §2
The results of these tests are reported in Table I in terms of ID50 values (Inhibiting Dose 50%), calculated on dose-effects lines.

[3] = Antitumor activity and toxicity on ascites Sarcoma 180 in CD 1 mice; type: in vivo; conditions: mouse, in vivo, ip, read-out: % Toxic Deaths
Method: (§4) The antitumor activity of the compounds of the invention was tested on ascites Sarcoma 180.
(§5) Three month old CD 1 mice were used. Sarcoma 180 ascites cells were inoculated intraperitoneally (10^6 cells/mouse). For use in these tests, the compounds were dissolved in distilled water or in 5% ethyl alcohol in distilled water, then diluted with Ringers solution and administered i.p. 1 day after the tumor implant (10 ml./kg. of body weight).
as §3

ascites Sarcoma 180 = test: as above; type: in vivo; conditions: for % LTS: 60 days; for LTS (Long Term Survivors after 60 days): survivors/total; for Toxic Deaths: deaths/total
Method: as §4, §5, §3

[4] = 3 mg./kg. i.v. for 5 consecutive days
[5] = 4 mg./kg. i.v. for 5 consecutive days
[6] = 5 mg./kg. i.v. for 5 consecutive days
[7] = 0.2 mg./kg. i.p. 1 day after tumor implant
[8] = 1 mg./kg. i.p. 1 day after tumor implant
[9] = 5 mg./kg. i.p. 1 day after tumor implant
[10] = 25 mg./kg. i.p. 1 day after tumor implant
[11] = 50 mg./kg. i.p. 1 day after tumor implant
[12] = 100 mg./kg. i.p. 1 day after tumor implant

COc1cccc2c1C(=O)c1c(O)c3c(c(O)c1C2=O)C[C@@](O)(C(=O)CN1CCOCC1)C[C@@H]3O[C@H]1C[C@H](N)[C@H](O)[C@H](C)O1 [14-(N-morpholino)-daunomycin]
IC50 at 72 h [1]: 0.5 µg/mL (≈ 0.816 µM) | activity at 0.0062 µg/mL (Mouse Embryo Fibroblasts; dose 0.0062 μg/ml): 81% | activity at 0.025 µg/mL (Mouse Embryo Fibroblasts; dose 0.0250 μg/ml): 68% | activity at 0.1 µg/mL (Mouse Embryo Fibroblasts; dose 0.1 μg/ml): 31% | activity at 0.4 µg/mL (Mouse Embryo Fibroblasts; dose 0.4 μg/ml): 21% | Tumor Volume T/C % (Solid Sarcoma 180; [4]): 77% | Toxic Deaths (Solid Sarcoma 180; [4]): 0/10 | Tumor Volume T/C % (Solid Sarcoma 180; [5]): 64% | Toxic Deaths (Solid Sarcoma 180; [5]): 0/10 | Tumor Volume T/C % (Solid Sarcoma 180; [6]): 69% | Toxic Deaths (Solid Sarcoma 180; [6]): 0/10 | IC50 ([2]; calculated on dose-effects lines, read-out: MSV-M foci ID 50 (Inhibiting Dose 50%)): 0.032 µg/mL (≈ 0.0522 µM) | activity at 0.0062 µg/mL ([2]; dose 0.0062 μg/ml, foci counted 5 days after infection, read-out: MSV-M No. of foci): 78% | activity at 0.025 µg/mL ([2]; dose 0.0250 μg/ml, foci counted 5 days after infection, read-out: MSV-M No. of foci): 69% | activity at 0.1 µg/mL ([2]; dose 0.1 μg/ml, foci counted 5 days after infection, read-out: MSV-M No. of foci): 17% | activity at 0.4 µg/mL ([2]; dose 0.4 μg/ml, foci counted 5 days after infection, read-out: MSV-M No. of foci): 0% | mortality ([3]; 0.2 mg./kg. i.p.): 0% | mortality ([3]; 1 mg./kg. i.p.): 0% | mortality ([3]; 5 mg./kg. i.p.): 0% | mortality ([3]; 25 mg./kg. i.p.): 0% | mortality ([3]; 50 mg./kg. i.p.): 14% | mortality ([3]; 100 mg./kg. i.p.): 85% | T/C (median survival time, % over untreated controls) (ascites Sarcoma 180; [7]): 103% | % LTS (ascites Sarcoma 180; [7]): 0% | LTS (Long Term Survivors after 60 days) (ascites Sarcoma 180; [7]): 0/10 | Toxic Deaths (ascites Sarcoma 180; 0.2 mg./kg. i.p.): 0/10 | T/C (median survival time, % over untreated controls) (ascites Sarcoma 180; [8]): 111% | % LTS (ascites Sarcoma 180; [8]): 0% | LTS (Long Term Survivors after 60 days) (ascites Sarcoma 180; [8]): 0/10 | Toxic Deaths (ascites Sarcoma 180; 1 mg./kg. i.p.): 0/10 | T/C (median survival time, % over untreated controls) (ascites Sarcoma 180; [9]): 133% | % LTS (ascites Sarcoma 180; [9]): 30% | LTS (Long Term Survivors after 60 days) (ascites Sarcoma 180; [9]): 3/10 | Toxic Deaths (ascites Sarcoma 180; 5 mg./kg. i.p.): 0/10 | T/C (median survival time, % over untreated controls) (ascites Sarcoma 180; [10]): 223% | % LTS (ascites Sarcoma 180; [10]): 29% | LTS (Long Term Survivors after 60 days) (ascites Sarcoma 180; [10]): 5/17 | Toxic Deaths (ascites Sarcoma 180; 25 mg./kg. i.p.): 0/17 | T/C (median survival time, % over untreated controls) (ascites Sarcoma 180; [11]): 100% | % LTS (ascites Sarcoma 180; [11]): 0% | LTS (Long Term Survivors after 60 days) (ascites Sarcoma 180; [11]): 0/7 | Toxic Deaths (ascites Sarcoma 180; 50 mg./kg. i.p.): 1/7 | T/C (median survival time, % over untreated controls) (ascites Sarcoma 180; [12]): 50% | % LTS (ascites Sarcoma 180; [12]): 14% | LTS (Long Term Survivors after 60 days) (ascites Sarcoma 180; [12]): 1/7 | Toxic Deaths (ascites Sarcoma 180; 100 mg./kg. i.p.): 6/7
